Assay [1] has as its target human vasopressin V1b receptor (Homo sapiens (Human), UniProt P47901). Kind of assay: biochemical.
Assay [2] concerns the target human vasopressin V1a receptor (Homo sapiens (Human), UniProt P37288). The assay can be described thus: Vasopressin V1a receptor binding assay. Particulars: selectivity quotient, human V1a vs human V1b.

These results are taken from patent publication US9617226B2 (AbbVie Deutschland GmbH & Co. KG, priority 2014, dated 2017).

The Ki is a dissociation constant, usually derived from enzyme kinetics or from competition with a known ligand.

Chain of human vasopressin V1a receptor (P37288 whole entry): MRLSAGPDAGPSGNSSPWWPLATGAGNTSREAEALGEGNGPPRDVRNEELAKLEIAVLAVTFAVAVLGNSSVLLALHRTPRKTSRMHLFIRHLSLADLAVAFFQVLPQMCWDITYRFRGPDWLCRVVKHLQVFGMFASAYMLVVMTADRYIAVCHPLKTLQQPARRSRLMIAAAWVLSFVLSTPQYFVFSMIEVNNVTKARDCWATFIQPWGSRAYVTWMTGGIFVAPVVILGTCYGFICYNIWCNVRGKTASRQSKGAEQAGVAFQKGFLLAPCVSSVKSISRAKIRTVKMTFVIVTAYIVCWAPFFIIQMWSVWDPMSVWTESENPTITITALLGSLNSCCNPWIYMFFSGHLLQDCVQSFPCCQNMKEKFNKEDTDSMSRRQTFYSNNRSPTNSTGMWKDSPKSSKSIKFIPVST
Chain of human vasopressin V1b receptor (P47901 whole entry): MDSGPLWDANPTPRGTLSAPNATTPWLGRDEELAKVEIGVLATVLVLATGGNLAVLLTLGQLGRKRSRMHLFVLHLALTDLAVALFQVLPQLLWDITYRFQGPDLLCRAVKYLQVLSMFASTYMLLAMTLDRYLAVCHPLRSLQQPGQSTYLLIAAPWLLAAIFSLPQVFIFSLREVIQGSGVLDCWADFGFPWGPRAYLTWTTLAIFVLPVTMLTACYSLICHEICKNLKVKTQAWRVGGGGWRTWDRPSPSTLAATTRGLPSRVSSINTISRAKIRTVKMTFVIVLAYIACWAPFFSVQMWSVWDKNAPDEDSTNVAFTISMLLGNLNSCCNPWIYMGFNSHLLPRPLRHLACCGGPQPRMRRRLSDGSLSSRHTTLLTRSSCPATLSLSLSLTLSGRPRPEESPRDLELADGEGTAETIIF

`CC(C)NC(=O)Cn1c(-c2cccc(Cl)c2)nc2ccc([C@H]3C[C@@H](CN4CCC(O)CC4)C3)cc2c1=O` [Example 32, cis-2-[2-(3-Chlorophenyl)-6-[3-[(4-hydroxy-1-piperidyl)methyl]cyclobutyl]-4-oxo-quinazolin-3-yl]-N-isopropyl-acetamide] displayed an inhibitory constant (Ki) in assay [1] of 10 to 100 nM. In addition, in assay [2], the “Ki(h-V1a)/Ki(h-V1b)” value is given as “+++ (>75)”.
